Assay results reported in patent US20250255883A1, “Compositions and Methods for Treating Aging Hair” (CHL Industries, LLC, priority 2021, published 2025).

System: Normal human keratinocytes (HEKa)
Assay: Real-time quantitative PCR gene expression in normal human keratinocytes treated for 24 hours
Format: cell-based
Conditions: vs. water-treated control

diethyl ester of copper (II) chlorin e6 [DECCE6]
Fold Up- or Down-Regulation 18S (gene 18S (housekeeping), 20 ug/mL): 1.2 Fold | Fold Up- or Down-Regulation AQP3 (gene AQP3, 20 ug/mL): 5.5 Fold | Fold Up- or Down-Regulation AREL1 (gene AREL1, 20 ug/mL): −5.8 Fold | Fold Up- or Down-Regulation ARRDC3 (gene ARRDC3, 20 ug/mL): 1.9 Fold | Fold Up- or Down-Regulation BAMBI (gene BAMBI, 20 ug/mL): 1.3 Fold | Fold Up- or Down-Regulation CCL20 (gene CCL20, 20 ug/mL): 2.6 Fold | Fold Up- or Down-Regulation CDKN1A (gene CDKN1A, 20 ug/mL): −1.4 Fold | Fold Up- or Down-Regulation CSF1 (gene CSF1, 20 ug/mL): 1.1 Fold | Fold Up- or Down-Regulation CSF2 (gene CSF2, 20 ug/mL): −1.1 Fold | Fold Up- or Down-Regulation CXCL1 (gene CXCL1, 20 ug/mL): 2.7 Fold | Fold Up- or Down-Regulation CXCL2 (gene CXCL2, 20 ug/mL): 3.0 Fold | Fold Up- or Down-Regulation CXCL3 (gene CXCL3, 20 ug/mL): −1.1 Fold | Fold Up- or Down-Regulation CXCL8 (gene CXCL8, 20 ug/mL): 1.3 Fold | Fold Up- or Down-Regulation CXCL10 (gene CXCL10, 20 ug/mL): 7.6 Fold | Fold Up- or Down-Regulation CYB561 (gene CYB561, 20 ug/mL): −1.2 Fold | Fold Up- or Down-Regulation CYP1A1 (gene CYP1A1, 20 ug/mL): 2.8 Fold | Fold Up- or Down-Regulation DDX5 (gene DDX5, 20 ug/mL): 2.1 Fold | Fold Up- or Down-Regulation DEFB1 (gene DEFB1, 20 ug/mL): 3.4 Fold | Fold Up- or Down-Regulation EPGN (gene EPGN, 20 ug/mL): 1.2 Fold | Fold Up- or Down-Regulation FGF2 (gene FGF2, 20 ug/mL): −2.1 Fold | Fold Up- or Down-Regulation FOS (gene FOS, 20 ug/mL): 15.9 Fold | Fold Up- or Down-Regulation G2E3 (gene G2E3, 20 ug/mL): 4.1 Fold | Fold Up- or Down-Regulation GDF15 (gene GDF15, 20 ug/mL): 1.7 Fold | Fold Up- or Down-Regulation GPADH (gene GPADH (housekeeping), 20 ug/mL): −1.9 Fold | Fold Up- or Down-Regulation GPX2 (gene GPX2, 20 ug/mL): 5.5 Fold | Fold Up- or Down-Regulation HBEGF (gene HBEGF, 20 ug/mL): 3.1 Fold | Fold Up- or Down-Regulation HECTD1 (gene HECTD1, 20 ug/mL): 1.2 Fold | Fold Up- or Down-Regulation HERC1 (gene HERC1, 20 ug/mL): 3.5 Fold | Fold Up- or Down-Regulation HIF1AN (gene HIF1AN, 20 ug/mL): −1.6 Fold | Fold Up- or Down-Regulation HPRT1 (gene HPRT1 (housekeeping), 20 ug/mL): 1.6 Fold | Fold Up- or Down-Regulation HSP90B1 (gene HSP90B1, 20 ug/mL): 1.2 Fold | Fold Up- or Down-Regulation IFI44L (gene IFI44L, 20 ug/mL): 3.9 Fold | Fold Up- or Down-Regulation JUN (gene JUN, 20 ug/mL): 3.3 Fold | Fold Up- or Down-Regulation JUNB (gene JUNB, 20 ug/mL): 1.6 Fold | Fold Up- or Down-Regulation LTB4R (gene LTB4R, 20 ug/mL): −1.3 Fold | Fold Up- or Down-Regulation MAFF (gene MAFF, 20 ug/mL): −1.1 Fold | Fold Up- or Down-Regulation MAP1LC3B (gene MAP1LC3B, 20 ug/mL): 1.2 Fold | Fold Up- or Down-Regulation MAPK14 (gene MAPK14, 20 ug/mL): −1.7 Fold | Fold Up- or Down-Regulation MGAT1 (gene MGAT1, 20 ug/mL): −1.0 Fold | Fold Up- or Down-Regulation MGAT5 (gene MGAT5, 20 ug/mL): −1.8 Fold | Fold Up- or Down-Regulation MOGS (gene MOGS, 20 ug/mL): −2.8 Fold | Fold Up- or Down-Regulation N4BP1 (gene N4BP1, 20 ug/mL): 1.7 Fold | Fold Up- or Down-Regulation NFKBIA (gene NFKBIA, 20 ug/mL): 4.6 Fold | Fold Up- or Down-Regulation PELI1 (gene PELI1, 20 ug/mL): −1.5 Fold | Fold Up- or Down-Regulation PLAUR (gene PLAUR, 20 ug/mL): 2.1 Fold | Fold Up- or Down-Regulation PPP1R15A (gene PPP1R15A, 20 ug/mL): 3.2 Fold | Fold Up- or Down-Regulation PTGFRN (gene PTGFRN, 20 ug/mL): −4.6 Fold | Fold Up- or Down-Regulation PTGS2 (gene PTGS2, 20 ug/mL): −1.1 Fold | Fold Up- or Down-Regulation PTX3 (gene PTX3, 20 ug/mL): 1.1 Fold | Fold Up- or Down-Regulation REL (gene REL, 20 ug/mL): 1.6 Fold | Fold Up- or Down-Regulation RSAD2 (gene RSAD2, 20 ug/mL): 1.9 Fold | Fold Up- or Down-Regulation SAMD9L (gene SAMD9L, 20 ug/mL): 1.3 Fold | Fold Up- or Down-Regulation SOD2 (gene SOD2, 20 ug/mL): 1.2 Fold | Fold Up- or Down-Regulation SPRR2B (gene SPRR2B, 20 ug/mL): 2.4 Fold | Fold Up- or Down-Regulation TGFB1 (gene TGFB1, 20 ug/mL): −1.9 Fold | Fold Up- or Down-Regulation TNF (gene TNF, 20 ug/mL): 16.4 Fold | Fold Up- or Down-Regulation TNFAIP3 (gene TNFAIP3, 20 ug/mL): 2.4 Fold | Fold Up- or Down-Regulation UBE2S (gene UBE2S, 20 ug/mL): 2.2 Fold | Fold Up- or Down-Regulation UBE3B (gene UBE3B, 20 ug/mL): 1.2 Fold | Fold Up- or Down-Regulation UBE4B (gene UBE4B, 20 ug/mL): 1.2 Fold | Fold Up- or Down-Regulation UBE20 (gene UBE20, 20 ug/mL): 1.8 Fold | Fold Up- or Down-Regulation VCP (gene VCP, 20 ug/mL): −2.0 Fold | Fold Up- or Down-Regulation VEGFA (gene VEGFA, 20 ug/mL): 1.5 Fold
